Values quoted from earlier work as cited in publication PMC3922827 (Journal of the American Chemical Society, 2013).
Read-outs that look alike come from different tables or passages of the source. No end group written: not given here. *: point of attachment. For = O=C*

Settings: graded or all-or-none class

AGWLLGKINLKALAALAKKIL-NH2 [TP10W]
type of dye release from lipid vesicles: graded

For-MAQKIISTIGKLVKWIIKTVNKFTKK [DL-1]
type of dye release from lipid vesicles (LUVs): all-or-none
